{"source": "a melting point compilation (Tetko et al.; mined from patent text by program, amines drawn as free bases though some values may be those of a salt)"}
{"units": {"melting point": "°C"}}
{"smiles": "COc1ccc(-c2c(C)ncc(C#N)c2Nc2cccc3[nH]ccc23)cc1OC", "melting point": "182 to 183"}
{"smiles": "Cn1c(C(F)(F)F)cc(=O)n(-c2cc(Oc3ccc[nH]c3=O)c(Cl)cc2F)c1=O", "melting point": 181}
{"smiles": "O=C(O)c1cccc(-c2cccc(OCCc3cccc(C(F)(F)F)c3)n2)c1", "melting point": "135 to 136"}
{"smiles": "O=C(CCn1ccnc1)N1c2ccccc2S(=O)c2ccc(Cl)cc21", "note": "(configuration not stated)", "melting point": "148 to 149"}
{"smiles": "N#Cc1cccc2c1NC(=O)C21COc2cc3c(cc21)OCO3", "note": "(configuration not stated)", "melting point": "205 to 207"}
{"smiles": "COc1cc(OC)cc(-c2nc[nH]c2-c2ccc(OC(F)(F)F)c(N)c2)c1", "melting point": "182 to 184"}
{"smiles": "COc1ccccc1C1(O)C(O)CC(C)(C)C2CN(C(=O)Cc3c[nH]c4ccccc34)CC21", "note": "(configuration not stated)", "melting point": "160 to 165"}
{"smiles": "Cc1c(N)c(C(C)C)cc(Cc2cc(C(C)C)c(N)c(C)c2Cl)c1Cl", "melting point": "118 to 120"}
{"smiles": "CCCn1nc(OCc2ccc3ccccc3n2)cc1COc1c(CC)cccc1CC(=O)O", "melting point": "118 to 119"}
{"smiles": "COc1cc(Oc2cccc3c2NC(=O)C3SC)cc(OC)c1OC", "note": "(configuration not stated)", "melting point": "155 to 158"}
{"smiles": "O=C(CBr)Nc1ccc([N+](=O)[O-])cc1", "melting point": "175 to 178"}
{"smiles": "C=CCNC(=O)N(N(CCCl)S(C)(=O)=O)S(C)(=O)=O", "melting point": "105 to 106"}
{"smiles": "COc1ccc2c(c1OC)CCCC(C(=O)O)=C2", "melting point": "208 to 209"}
{"smiles": "CCN(CC)C1CCN(c2ccc(-c3[nH]nc4c3C(=O)c3c(NC(=O)NN5CCOCC5)cccc3-4)cc2)CC1", "melting point": 251}
{"smiles": "COCCc1sc2ncnc(N)c2c1-c1ccc(NC(=O)Cc2cccc(C)c2)cc1", "melting point": "200 to 202"}
{"smiles": "CC(C)(C(=O)NC1CCCCC1)c1ccc(S(=O)(=O)/C=C/C#N)cc1", "melting point": "191 to 193"}
{"smiles": "N#Cc1ccc(CN2C(=O)c3ccccc3C2=O)cc1", "melting point": "189 to 191"}
{"smiles": "CCO/C(=C\\c1ccc(OCCc2ccc(OS(C)(=O)=O)cc2)c(OC)c1)C(=O)O", "melting point": 147}
{"smiles": "Cc1cc(C)c(-n2ccc3c(OCc4ccc(C(F)(F)F)cc4)nn(C)c(=O)c32)c(C)c1", "melting point": "178 to 180"}
{"smiles": "O=C(NN=Cc1ccc2ccccc2n1)c1cccc([N+](=O)[O-])c1", "melting point": "217 to 218"}
{"smiles": "Oc1ccc(-c2ncco2)cc1", "melting point": "167 to 168"}
{"smiles": "CNC(=O)C(C)Oc1ncn(-c2ccccc2)n1", "note": "(configuration not stated)", "melting point": "134 to 135"}
{"smiles": "COc1ccc(-c2c(NCCc3cccc(C(F)(F)F)c3)c(=O)c2=O)cc1", "melting point": "220 to 222"}
{"smiles": "COc1cccc(OC)c1C(=O)P(=O)(c1ccccc1)c1ccccc1", "melting point": "124 to 126"}
{"smiles": "O=C(O)c1cc(S(=O)(=O)O)c2cccnc2c1O", "melting point": "289 to 291"}
{"smiles": "O=C(CCl)Oc1ccccc1CCC1SCCN1C(=O)CCl", "note": "(configuration not stated)", "melting point": "88 to 89"}
{"smiles": "CC(=O)Nc1c(CC(=O)O)c2ccccc2n1C", "melting point": "200 to 206"}
{"smiles": "O=c1oc2ccccc2cc1CCN1CCC(Nc2nc3ccccc3n2Cc2ccc(F)cc2)CC1", "melting point": 168}
{"smiles": "CC(C)C(=O)N[C@@H](CSC(=O)C(C)C)C(=O)NCCSC(=O)c1ccccc1", "melting point": "141 to 143"}
{"smiles": "COc1cc(C(=O)O)cc2c1C(=O)c1ccccc1CC2", "melting point": "222 to 227"}
{"smiles": "CNC(=O)Nc1ccc(Cc2cc(C)c(C(=O)c3ccc(Cl)cc3)n2C)nc1", "melting point": "234 to 236"}
{"smiles": "O=C(Nc1ccccc1N1CCc2ccccc21)c1ccccc1", "melting point": "73 to 76"}
{"smiles": "Cc1ccc(C(CC(=O)O)C(=O)O)s1", "note": "(configuration not stated)", "melting point": "186 to 188"}
{"smiles": "CCOc1ccc(C2=NN(c3ccc(C(=O)N4CCN(c5nc(-c6ccccc6)ns5)CC4)cc3)C(=O)[C@@H]3CC=CC[C@H]23)cc1OCC", "melting point": "168 to 169"}
{"smiles": "CC1(C)NC(C)(C)c2ccccc21", "melting point": "36 to 38"}
{"smiles": "CC(=O)NC[C@H]1CN(c2ccc(C3=CCCN(C(=O)OC(C)(C)C)CC3)c(F)c2)C(=O)O1", "melting point": "164 to 165"}
{"smiles": "CCC(C(C)=CC(CNC(=O)Cc1n[nH]c(=O)c2ncccc12)=NO)[N+](=O)[O-]", "note": "(configuration not stated)", "melting point": "143 to 145"}
{"smiles": "CC1=CC(COC(c2ccccc2)(c2ccccc2)c2ccccc2)OC1O", "note": "(configuration not stated)", "melting point": "100 to 102"}
{"smiles": "FC(F)(F)/C(=C(\\c1ccccc1)c1ccc(OCc2ccccc2)cc1)c1ccccc1", "melting point": "128 to 129"}
{"smiles": "O=C(COc1cccc(C(=O)O)c1)NCCNC(=O)COc1cccc(C(=O)O)c1", "melting point": 282}
{"smiles": "CCn1ncc2c1ncc1c(=O)[nH]c3nc(S(C)=O)nn3c12", "note": "(configuration not stated)", "melting point": "> 300"}
{"smiles": "CC(C)(C)OC(=O)COc1ccc(NC(=O)NC(=O)c2ccc(C(N)=S)nc2)cc1", "melting point": "248 to 249"}
{"smiles": "COC(=O)c1ccc(C(C)(O)c2cc3cc(Cl)ccc3n2S(=O)(=O)c2ccc(C(C)C)cc2)cc1", "note": "(configuration not stated)", "melting point": 163}
{"smiles": "CC(C)(C)c1ccc(-c2nc(NC(=O)c3ccccc3)sc2-c2ccncc2)cc1", "melting point": "292 to 294"}
{"smiles": "CCN(Cc1ccccc1)C(=O)Cc1c(-c2ccc(OC)cc2)nc2cc(C)ccn12", "melting point": "175 to 178"}
{"smiles": "O=C(NO)c1ccc2c(c1)CN(C(=O)OCc1cccnc1)C2", "melting point": "196 to 199"}
{"smiles": "COc1ccc(-c2ccc(-c3ccc(F)cc3)nc2-c2ccc(OC)cc2)cc1", "melting point": "118 to 120"}
{"smiles": "COc1cc(OC)nc(NC(=O)NS(=O)(=O)c2ccccc2C=C2CCOC2=O)n1", "melting point": "185 to 190"}
{"smiles": "CC1CC(=O)NN=C1c1ccc2c(c1)nc(C1CC1)n2Cc1ccc(-c2ccccc2-c2nnn[nH]2)cc1", "note": "(configuration not stated)", "melting point": 265}
{"smiles": "CC(C)(C)CC(C)(C)c1cc(-n2nc3ccc(-c4ccsc4)cc3n2)c(O)c(C(C)(C)c2ccccc2)c1", "melting point": "147 to 149"}
{"smiles": "Cn1c(=O)nc(-c2ccccc2F)c2ccsc21", "melting point": "222 to 223"}
{"smiles": "Clc1ccc(Cl)c(CN2CCNc3ncc(-c4ccc(Cl)nc4)cc32)c1", "melting point": 205}
{"smiles": "CCOC(=O)CNC(=O)Oc1c(Cl)cc(Cl)c2cccnc12", "melting point": 120}
{"smiles": "Cc1nc(N2CCN(Cc3ccccc3)C2=O)sc1C(=O)NCc1ccc(F)cc1F", "melting point": "157 to 158"}
{"smiles": "COc1ccc(C)cc1C(CCO)c1ccccc1", "note": "(configuration not stated)", "melting point": 64}
{"smiles": "CC(Oc1cccc2c(Oc3ccc(C(F)(F)F)cc3F)cccc12)C(=O)O", "note": "(configuration not stated)", "melting point": 166}
{"smiles": "O=C(COc1cccc2ccccc12)c1cc(O)c(O)c([N+](=O)[O-])c1", "melting point": "198 to 199"}
{"smiles": "CS(=O)(=O)N1CCN(c2ccc(O)cc2)CC1", "melting point": 205}
{"smiles": "COC(=O)Cc1ccc2cc(OC)ncc2c1", "melting point": "49.5 to 51"}
{"smiles": "CC(C)(C)OC(=O)N1CCN(C(=O)c2ccc3n2Cc2ccccc2N(C(=O)C2=CC=C(c4ccccc4)C(C)(C(F)(F)F)C2)C3)CC1", "note": "(configuration not stated)", "melting point": "104 to 121"}
{"smiles": "NCCCP(=O)(O)CC(O)CN1C(=O)c2ccccc2C1=O", "note": "(configuration not stated)", "melting point": "268 to 271"}
{"smiles": "CN(Cc1ccc(NC(=O)C2=Cc3cc(Br)ccc3N(C3CC3)CC2)cc1)C1CCOCC1", "melting point": "133 to 136"}
{"smiles": "CC(C)CSc1ccc(N)c([N+](=O)[O-])c1", "melting point": "56.5 to 58.5"}
{"smiles": "COC(=O)Nc1cc(-c2ccc(S(C)(=O)=O)cc2)n(-c2ccc(F)cc2)n1", "melting point": "225 to 227"}
{"smiles": "Cc1cccc(C2OCC(OCc3ccccc3)CO2)c1", "note": "(configuration not stated)", "melting point": "68 to 70"}
{"smiles": "NS(=O)(=O)CS(=O)c1ccc(Cl)c(Cl)c1", "note": "(configuration not stated)", "melting point": "205 to 207"}
{"smiles": "COC(=O)c1cccc([N+](=O)[O-])c1NCc1ccc(-c2ccccc2C#N)cc1", "melting point": "140 to 141"}
{"smiles": "NS(=O)(=O)c1ccc(-n2nc(CNC(=O)Nc3cccc(C(F)(F)F)c3)cc2-c2ccccc2)cc1", "melting point": "185 to 190"}
{"smiles": "CC(C)(C)OC(=O)N1CCN(C(=O)C2CCCCN2C(=O)OCc2ccccc2)CC1", "note": "(configuration not stated)", "melting point": 102}
{"smiles": "O=C1CCCc2ccc3ccccc3c21", "melting point": "64 to 66"}
{"smiles": "O=[N+]([O-])c1ccc(Cl)c(S)c1", "melting point": "267 to 268"}
{"smiles": "Cn1c(/C=C/C(=O)Cl)c(-c2ccccc2)c2ccccc2c1=O", "melting point": "213 to 215"}
{"smiles": "O=C(Nc1ccc(C(F)(F)F)cc1Cl)[C@H]1[C@H](c2ccccc2)C12CCCC2", "note": "(relative stereo)", "melting point": "131 to 133"}
{"smiles": "CCCCCSC1=NC(c2cccc([N+](=O)[O-])c2)C(C(=O)OCC)=C(C)N1", "note": "(configuration not stated)", "melting point": "104 to 105"}
{"smiles": "Oc1ccccc1-c1ccnc(-c2ccccc2)n1", "melting point": "195 to 198"}
{"smiles": "COc1cc2ccccc2cc1NC(=O)N1CCN(c2cc(F)cc(F)c2)CC1", "melting point": "160 to 161"}
{"smiles": "O=C(O)c1cn(-c2cccnc2)c2c(F)c(F)c(F)cc2c1=O", "melting point": "122 to 124"}
{"smiles": "CC(C)(C)C(=O)Oc1ccc(CNC(=O)c2cccnc2Oc2ccc(F)cc2)cc1", "melting point": "91 to 93"}
{"smiles": "OC1CSC(Oc2ccc(-c3ccnc(F)c3)nc2Cl)C(O)C1O", "note": "(configuration not stated)", "melting point": 195}
{"smiles": "O=C1NC[C@@H](c2ccccc2)O1", "melting point": "86 to 87"}
{"smiles": "O=C1c2ccc3cccnc3c2N=CC1S(=O)(=O)CC(F)(F)F", "note": "(configuration not stated)", "melting point": "272 to 274"}
{"smiles": "CCCCC(CCCC)C(=O)O[C@H]1C[C@H](O)C=C2C=C[C@H](C)[C@H](CC[C@@H]3C[C@@H](O)CC(=O)O3)[C@H]21", "melting point": "143 to 145"}
{"smiles": "COc1ccc(CCc2ccc(NC(=O)C(=O)C3=C(O)c4ccccc4SC3)cc2)cc1OC", "melting point": "184 to 185"}
{"smiles": "Cc1cccc(N(C=C(C#N)C#N)N=C(C#N)C#N)c1", "melting point": "157 to 159"}
{"smiles": "Nn1cccc1C(=O)c1ccccc1F", "melting point": "44 to 47"}
{"smiles": "CC(=O)CCc1nsc2ccc(-n3c(=O)cc(C(F)(F)F)n(C)c3=O)cc12", "melting point": "198 to 199"}
{"smiles": "CC(C)OC(=O)Nc1cccc(-c2ccnc3c(C(=O)C4CCCC4)cnn23)c1", "melting point": "57 to 59"}
{"smiles": "COC(=O)COc1ccc(OCC(=O)OC)cc1", "melting point": "96 to 98"}
{"smiles": "CCCCc1ccc(CN(CCCCCCC(=O)O)S(C)(=O)=O)cc1", "melting point": 137}
{"smiles": "CCC(C)c1ccccc1SC1=C(O)CC(CCc2ccccc2)(c2ccccc2)OC1=O", "note": "(configuration not stated)", "melting point": "67 to 68"}
{"smiles": "CCOC(=O)C(C)c1ccc(-c2cn3cccnc3n2)cc1", "note": "(configuration not stated)", "melting point": "171 to 173"}
{"smiles": "O=C1CCN(c2cc(Cl)cc3cccnc23)CC1", "melting point": "223 to 225"}
{"smiles": "Cc1ccc(S(=O)(=O)N2C[C@@H](Cl)C[C@@H]2CCl)cc1", "melting point": "103 to 105"}
{"smiles": "CCc1csc(NC(=O)Nc2ccc(N3CCN(C(=O)Nc4ccc(OCCO)cc4C(F)(F)F)CC3)cc2)n1", "melting point": "124 to 125"}
{"smiles": "COc1ccc(N2CCN(c3c(C)c(C)c4c(c3C)C(OCc3ccccc3)C(C)(C)O4)CC2)cc1", "note": "(configuration not stated)", "melting point": "98 to 99"}
{"smiles": "Cn1c(C#N)c(C#N)n(-c2cc(O)c(Cl)cc2F)c1=O", "melting point": "210 to 212"}
{"smiles": "Cc1cc2c(c3ccc(=O)[nH]c13)OC(CNC(=O)C(C)(C)NC(=O)OCc1ccccc1)C2", "note": "(configuration not stated)", "melting point": "220 to 222"}
